Where “and” joins values, the source holds several entries; their conditions need not be identical. Identical values can stand only once.
Assays:
FGF1 = target: T1, FGF1 (Homo sapiens, UniProt P05230); assay: Fluorescence spectroscopy binding constant of FGF1 and suramin derivatives; conditions: fluorescence quenching, 5 µM FGF1, non-linear regression with Stern–Volmer equation, pH 6.5
T1 construct: made in house
Procedure: The binding constant Kd was calculated for FGF1 and the five derivatives in a buffer containing 10% D2O, 50 mM AMS, 20 mM phosphate buffer, and 50 mM NaCl at pH 6.5 using an F-2500 Hitachi fluorescence spectrophotometer.
[…] has tremendous significance for biochemical application because it provides valuable knowledge about the probability of quencher activity. The anti-mitogenic activity of the five compounds was achieved by the same mechanism in which suramin inhibits the mitogenic activity of FGF1. A non-linear regression curve was plotted for the relative intensities of activity versus drug concentration using the Stern–Volmer equation (Eq. 1). log(F0−F)/F=logK+nlog[Q], (1)
where F0 represents the fluorescence intensity in the absence of the compounds, and F represents the fluorescence intensity in the presence of the [Q] concentration of the compounds.
Increasing concentrations of these five suramin derivatives were added to a solution containing 5 µM FGF1. A reduction in the fluorescence intensity was reported for all five suramin derivatives. The Stern–Volmer equation was used to calculate the binding constant between FGF1 and compounds 14, 15, 17, 18, and 21 for relative intensities versus the total concentration in a non-linear regression curve.

[1] = WST-1 assay, cytotoxicity in tumorigenic cells; type: cell-based, human; conditions: human; MCF-7 cells, 48 h, SigmaPlot; read-out: estimated IC50 (cytotoxicity)
Procedure: (§1) The water-soluble tetrazolium salt (WST-1) assay was performed to assess the effects of the compounds on cell proliferation and cytotoxicity. DMEM/F12 containing 10% FBS was used for the cell culture, and incubation was performed in 5% CO2 till the logarithmic growth phase was achieved. On the day before the experiment, the cells were trypsinized and seeded in a 96-well plate at a density of 5000 cells/well. For the FGF1-stimulated cell proliferation assay, the cells were then incubated for 24 h in a serum-free medium containing 0.1% bovine serum albumin (BSA). Serum-starved cells with or without a specified concentration of suramin, 14, 15, 17, 18, 21, and FGFRD2 were stimulated with 100 nM of FGF1 again for 48 h. For the purpose of the cytotoxicity assay, the cells were treated with an increased concentration of suramin and compounds 14, 17, 15, 18, and 21 (Figure 6) for 48 h. Also, 1/10 of the volume of WST-1 cell reagent was inserted in every well and maintained at 37°C for another 4 h before harvesting. There was gentle agitation of the medium in the cell culture plate for 10 min using a shaker. A Synergy 2 microplate reader (BioTek Instruments, Inc., VT, United States) was used to measure the absorbance at 450 nm. The relative absorbance was compared with the control treatment to determine the relative cell number.
(§2) […] […] The reason for the higher cytotoxicity was the presence of methyl groups on the suramin structure ([Martello et al., 2001]).
(§3) Suramin-induced neuropathy may depend on the effects on calcium (Ca^2+) homeostasis as a potential pathological mechanism, and the full or partial positive charge of the element when directly attached to the ring at each of the sulphonic groups (HSO3). These interactions exert a moderate to strong electron-withdrawing inductive effect, which may be responsible for the observed suramin cytotoxicity ([Prasetyaningrum et al., 2018]; [Von Der Ahe et al., 2018]). The cytotoxicity of the synthesized analogs was lower as there were methyl groups and no sulfonic acid groups attached to the suramin backbone. The IC50 values of the synthesized compounds in MCF-7 breast cancer cells were analyzed using SigmaPlot software.

MCF-7 cells [2] = assay: WST-1 assay, cytotoxicity in tumorigenic cells; type: cell-based, human; conditions: for Mean (Blank 450) / Fold (mean) / Blank 450 / Fold: S8; for Fold (mean): relative to control; for Blank 450: single replicate absorbance; for Fold: single replicate relative to control; for cytotoxicity compared with suramin: MCF-7 cells, 1-100 µM, 48 h, especially at concentrations higher than 10 µM
Procedure: as §1, §2, §3

MCF-7 cells [3] = assay: WST-1 assay, FGF1-stimulated cell proliferation; type: cell-based, human; conditions: serum-starved MCF-7, 100 nM FGF1, 100 nM, 500 nM and 1 µM of test substance, 48 h
Procedure: as §1
Cell proliferation was measured using the WST-1 assay. […]

[4] = WST-1 assay, cytotoxicity in normal breast epithelial cell line (non-tumorigenic); type: cell-based; conditions: human; non-tumorigenic MCF-10A cells; read-out: estimated IC50 (cytotoxicity)
Procedure: as §1
In order to gain some insight about the selectivity of the compounds between tumorigenic and non-tumorigenic cells, the cytotoxicity was also being evaluated against normal breast cell lines by examining the cytotoxicity of suramin and its derivatives, compounds 15, 18, and 21, in a normal breast epithelial cell line (non-tumorigenic), MCF-10A. […] Compared to their cytotoxicity in tumorigenic MCF-7 cells (Figure 6), the estimated IC50 values in MCF-10A were higher than those in MCF-7 cells. […] However, the estimated IC50 value of suramin and its derivatives in both non-tumorigenic MCF-10A and tumorigenic MCF-7 cells were over 100 μM. The effective concentrations of suramin and its derivatives to attenuate FGF1-stimulated cell proliferation in MCF-7 cells were around 1 μM (Figure 5), which is non-toxic concentration to both MCF-7 cells and MCF-10A cells. […] Therefore, in addition to the specificity of each drug, the selectivity of suramin and its derivatives to disrupt the FGF1/FGFR-mediated breast cancer growth might rely on the overexpression or amplification of FGFR2 in breast cancer cells, but not in normal cells, and the secreted FGF1 ligand by autocrine or paracrine effects from cancer cells or their surrounding stroma cells or adipocytes (tumor microenvironment). The statistical data for the cytotoxicity are shown in Supplementary Figure S8.

T1 sequence (P05230 whole entry): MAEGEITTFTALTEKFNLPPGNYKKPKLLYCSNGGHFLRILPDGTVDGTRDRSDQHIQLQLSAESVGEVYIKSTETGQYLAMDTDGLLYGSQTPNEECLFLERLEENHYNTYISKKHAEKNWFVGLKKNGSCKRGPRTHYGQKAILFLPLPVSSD

| Kd (FGF1) | Compound | IC50 at 48 h [1] | Mean (Blank 450) (MCF-7 cells [2]; 0.5 uM) | Mean (Blank 450) (MCF-7 cells [2]; 1 uM) | Fold (mean) (MCF-7 cells [2]; 1 uM) | Blank 450 (MCF-7 cells [2]; 1 uM) | Fold (MCF-7 cells [2]; 1 uM) | Mean (Blank 450) (MCF-7 cells [2]; 5 uM) | Fold (mean) (MCF-7 cells [2]; 5 uM) | Blank 450 (MCF-7 cells [2]; 5 uM) | Fold (MCF-7 cells [2]; 5 uM) | Mean (Blank 450) (MCF-7 cells [2]; 10 uM) | Fold (mean) (MCF-7 cells [2]; 10 uM) | Blank 450 (MCF-7 cells [2]; 10 uM) | Fold (MCF-7 cells [2]; 10 uM) | Mean (Blank 450) (MCF-7 cells [2]; 100 uM) | Fold (mean) (MCF-7 cells [2]; 100 uM) | Blank 450 (MCF-7 cells [2]; 100 uM) | Fold (MCF-7 cells [2]; 100 uM) | cytotoxicity compared with suramin (MCF-7 cells [2]) | other results |
| --- | --- | --- | --- | --- | --- | --- | --- | --- | --- | --- | --- | --- | --- | --- | --- | --- | --- | --- | --- | --- | --- |
| 13.7 µM | O=C(Nc1ccc(C(=O)Nc2cccc3cc(S(=O)(=O)O)ccc23)cc1)Nc1ccc(C(=O)Nc2cccc3cc(S(=O)(=O)O)ccc23)cc1 [Compound 14, Sodium 5,5'-((4,4'-(carbonylbis (azanediyl))bis (benzoyl))bis (azanediyl)) bis (naphthalene-2-sulfonate)] | > 100 µM | 0.233 | 0.231 | 1.03 | 0.248 and 0.227 and 0.205 and 0.242 | 1.113 and 1.019 and 0.920 and 1.086 | 0.225 | 1.01 | 0.219 and 0.241 and 0.23 and 0.208 | 0.983 and 1.082 and 1.033 and 0.934 | 0.211 | 0.95 | 0.206 and 0.193 and 0.225 and 0.218 | 0.925 and 0.866 and 1.010 and 0.979 | 0.198 | 0.89 | 0.209 and 0.195 and 0.181 and 0.208 | 0.938 and 0.875 and 0.813 and 0.934 | less toxic | Fold (mean) (MCF-7 cells [2]; 0.5 uM): 1.04; Blank 450 (MCF-7 cells [2]; 0.5 uM): 0.228 and 0.253 and 0.244 and 0.205; Fold (MCF-7 cells [2]; 0.5 uM): 1.024 and 1.136 and 1.095 and 0.920; effect on FGF1-stimulated cell proliferation (MCF-7 cells [3]): more potent inhibitory effects |
| 10.1 µM | O=C(Nc1ccc(C(=O)Nc2ccc(C(=O)Nc3cccc4cc(S(=O)(=O)O)ccc34)cc2)cc1)Nc1ccc(C(=O)Nc2ccc(C(=O)Nc3cccc4cc(S(=O)(=O)O)ccc34)cc2)cc1 [Compound 17, Sodium 5,5'-((4,4'-((4,4'-(carbonylbis (azanediyl))bis (benzoyl))bis (azanediyl))bis (benzoyl))bis(azanediyl)) bis (naphthalene-2-sulfonate)] | > 100 µM | 0.233 | 0.226 | 1.01 | 0.235 and 0.232 and 0.211 and 0.225 | 1.055 and 1.042 and 0.947 and 1.010 | 0.222 | 1.00 | 0.201 and 0.215 and 0.233 and 0.239 | 0.902 and 0.965 and 1.046 and 1.073 | 0.220 | 0.99 | 0.218 and 0.227 and 0.225 and 0.209 | 0.979 and 1.019 and 1.010 and 0.938 | 0.208 | 0.93 | 0.197 and 0.209 and 0.218 and 0.206 | 0.884 and 0.938 and 0.979 and 0.925 | less toxic | Fold (mean) (MCF-7 cells [2]; 0.5 uM): 1.04; Blank 450 (MCF-7 cells [2]; 0.5 uM): 0.241 and 0.231 and 0.216 and 0.243; Fold (MCF-7 cells [2]; 0.5 uM): 1.082 and 1.037 and 0.970 and 1.091; effect on FGF1-stimulated cell proliferation (MCF-7 cells [3]): more potent inhibitory effects |
| 15.9 µM | O=C(Nc1ccc(C(=O)Nc2cc(S(=O)(=O)O)cc3cc(S(=O)(=O)O)cc(S(=O)(=O)O)c23)s1)Nc1ccc(C(=O)Nc2cc(S(=O)(=O)O)cc3cc(S(=O)(=O)O)cc(S(=O)(=O)O)c23)s1 [Compound 21, Sodium 8,8'-((5,5'-(carbonylbis (azanediyl))bis (thiophene-5,2-diyl-2-carbonyl))bis (azanediyl)) bis (naphthalene-1,3,6-trisulfonate)] | > 100 µM |  | 1.167 | 1.00 | 1.107 and 1.215 and 1.169 and 1.177 | 0.950 and 1.043 and 1.003 and 1.010 | 1.178 | 1.01 | 1.145 and 1.151 and 1.183 and 1.233 | 0.983 and 0.988 and 1.015 and 1.058 | 1.163 | 1.00 | 1.136 and 1.167 and 1.187 and 1.163 | 0.975 and 1.002 and 1.019 and 0.998 | 1.021 | 0.88 | 1.046 and 1.075 and 0.916 | 0.898 and 0.923 and 0.786 | less toxic | Mean (Blank 450) (MCF-7 cells [2]; 50 uM): 1.124; Fold (mean) (MCF-7 cells [2]; 50 uM): 0.96; Blank 450 (MCF-7 cells [2]; 50 uM): 1.137 and 1.128 and 1.113 and 1.119; Fold (MCF-7 cells [2]; 50 uM): 0.976 and 0.968 and 0.955 and 0.960; IC50 at 48 h [4]: 628 ± 1.45 µM |
|  | Cc1ccc(C(=O)Nc2ccc(S(=O)(=O)O)c3cc(S(=O)(=O)O)cc(S(=O)(=O)O)c23)cc1NC(=O)c1cccc(NC(=O)Nc2cccc(C(=O)Nc3cc(C(=O)Nc4ccc(S(=O)(=O)O)c5cc(S(=O)(=O)O)cc(S(=O)(=O)O)c45)ccc3C)c2)c1 [suramin] | > 100 µM |  | 1.211 | 1.04 | 1.289 and 1.186 and 1.173 and 1.197 | 1.106 and 1.018 and 1.007 and 1.027 | 1.160 | 1.00 | 1.137 and 1.217 and 1.147 and 1.138 | 0.976 and 1.044 and 0.984 and 0.977 | 1.116 | 0.96 | 1.187 and 1.064 and 1.159 and 1.052 | 1.019 and 0.913 and 0.995 and 0.903 | 0.817 | 0.70 | 0.795 and 0.82 and 0.838 and 0.816 | 0.682 and 0.704 and 0.719 and 0.700 | highest among all the analogs | Mean (Blank 450) (MCF-7 cells [2]; 50 uM): 1.004; Fold (mean) (MCF-7 cells [2]; 50 uM): 0.86; Blank 450 (MCF-7 cells [2]; 50 uM): 0.936 and 0.988 and 1.088 and 1.004; Fold (MCF-7 cells [2]; 50 uM): 0.803 and 0.848 and 0.934 and 0.862; IC50 at 48 h [4]: 222 ± 2.4 µM |

— paper PMC8763243, “Synthesis of Novel Suramin Analogs With Anti-Proliferative Activity via FGF1 and FGFRD2 Blockade” (Frontiers in Chemistry, 2022)
